The values below come from ChEMBL document CHEMBL1201862, “PubChem BioAssay data set” (2004).

The target in one assay is Procathepsin L (Homo sapiens, UniProt P07711). The assay can be described thus: cathepsin L inhibitors, dose response, counter-screen for M1/M17 aminopeptidase inhibitor project, biochemical, QFRET, 1536-well (AID 2214).
The target in assay [1] is Dual specificity tyrosine-phosphorylation-regulated kinase 1A (Rattus norvegicus, UniProt Q63470). The format is biochemical, Homo sapiens.
The next assay concerns the target T1, Leucine aminopeptidase (Plasmodium falciparum 3D7, UniProt Q8IL11).
T1 sequence (Q8IL11 whole entry): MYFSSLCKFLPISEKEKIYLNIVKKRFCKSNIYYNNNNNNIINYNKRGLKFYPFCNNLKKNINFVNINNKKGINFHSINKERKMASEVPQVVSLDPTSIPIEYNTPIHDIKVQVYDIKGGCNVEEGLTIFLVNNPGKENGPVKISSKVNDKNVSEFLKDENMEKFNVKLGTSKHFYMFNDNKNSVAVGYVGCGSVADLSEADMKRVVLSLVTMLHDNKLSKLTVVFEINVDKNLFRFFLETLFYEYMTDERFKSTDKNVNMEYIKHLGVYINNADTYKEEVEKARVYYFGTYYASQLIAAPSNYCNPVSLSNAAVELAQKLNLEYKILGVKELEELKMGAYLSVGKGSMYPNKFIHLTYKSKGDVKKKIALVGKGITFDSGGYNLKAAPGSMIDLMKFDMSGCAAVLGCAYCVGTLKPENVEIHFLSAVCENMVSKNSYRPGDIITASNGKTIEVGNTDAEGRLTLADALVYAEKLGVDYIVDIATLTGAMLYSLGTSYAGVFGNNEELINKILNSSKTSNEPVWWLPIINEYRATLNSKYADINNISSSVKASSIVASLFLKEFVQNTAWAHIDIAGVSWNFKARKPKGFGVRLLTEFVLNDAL
Description: P. falciparum M17LAP inhibitors, primary screen, biochemical, fluorogenic H-Leu-NHMec substrate, 1536-well (AID 1619). The format is functional.

The target of assay [2] is T2, Replicative DNA helicase DnaB (Mycobacterium tuberculosis, UniProt P9WMR3).
T2 sequence (P9WMR3 whole entry): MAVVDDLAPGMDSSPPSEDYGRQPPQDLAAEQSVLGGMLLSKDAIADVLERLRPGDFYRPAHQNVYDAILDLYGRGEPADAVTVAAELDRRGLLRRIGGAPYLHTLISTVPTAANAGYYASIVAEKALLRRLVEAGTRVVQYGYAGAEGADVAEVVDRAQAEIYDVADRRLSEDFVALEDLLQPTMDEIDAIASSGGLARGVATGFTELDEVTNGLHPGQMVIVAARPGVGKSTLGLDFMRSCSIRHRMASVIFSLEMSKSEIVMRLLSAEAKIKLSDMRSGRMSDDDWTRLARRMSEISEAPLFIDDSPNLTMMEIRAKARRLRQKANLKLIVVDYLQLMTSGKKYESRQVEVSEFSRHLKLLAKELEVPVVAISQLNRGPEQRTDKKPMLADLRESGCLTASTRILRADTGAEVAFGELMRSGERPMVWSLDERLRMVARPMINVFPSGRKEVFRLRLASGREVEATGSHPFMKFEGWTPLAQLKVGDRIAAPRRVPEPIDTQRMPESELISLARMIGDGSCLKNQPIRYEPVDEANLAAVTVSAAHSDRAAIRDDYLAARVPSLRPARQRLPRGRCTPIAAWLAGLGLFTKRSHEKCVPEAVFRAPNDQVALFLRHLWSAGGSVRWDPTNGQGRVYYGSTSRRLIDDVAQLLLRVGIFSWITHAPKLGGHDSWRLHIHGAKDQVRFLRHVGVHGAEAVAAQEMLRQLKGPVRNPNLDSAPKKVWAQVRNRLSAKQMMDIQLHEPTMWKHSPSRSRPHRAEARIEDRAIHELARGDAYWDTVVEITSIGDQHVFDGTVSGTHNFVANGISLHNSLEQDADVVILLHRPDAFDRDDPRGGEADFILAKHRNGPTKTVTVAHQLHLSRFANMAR
Description: DnaB intein splicing inhibitors, dose response, biochemical, cell-free fluorescence (AID 449749). The format is functional.

The target in a further assay is T3, Protein RecA (Mycobacterium tuberculosis, UniProt P9WHJ3).
T3 sequence (P9WHJ3 whole entry): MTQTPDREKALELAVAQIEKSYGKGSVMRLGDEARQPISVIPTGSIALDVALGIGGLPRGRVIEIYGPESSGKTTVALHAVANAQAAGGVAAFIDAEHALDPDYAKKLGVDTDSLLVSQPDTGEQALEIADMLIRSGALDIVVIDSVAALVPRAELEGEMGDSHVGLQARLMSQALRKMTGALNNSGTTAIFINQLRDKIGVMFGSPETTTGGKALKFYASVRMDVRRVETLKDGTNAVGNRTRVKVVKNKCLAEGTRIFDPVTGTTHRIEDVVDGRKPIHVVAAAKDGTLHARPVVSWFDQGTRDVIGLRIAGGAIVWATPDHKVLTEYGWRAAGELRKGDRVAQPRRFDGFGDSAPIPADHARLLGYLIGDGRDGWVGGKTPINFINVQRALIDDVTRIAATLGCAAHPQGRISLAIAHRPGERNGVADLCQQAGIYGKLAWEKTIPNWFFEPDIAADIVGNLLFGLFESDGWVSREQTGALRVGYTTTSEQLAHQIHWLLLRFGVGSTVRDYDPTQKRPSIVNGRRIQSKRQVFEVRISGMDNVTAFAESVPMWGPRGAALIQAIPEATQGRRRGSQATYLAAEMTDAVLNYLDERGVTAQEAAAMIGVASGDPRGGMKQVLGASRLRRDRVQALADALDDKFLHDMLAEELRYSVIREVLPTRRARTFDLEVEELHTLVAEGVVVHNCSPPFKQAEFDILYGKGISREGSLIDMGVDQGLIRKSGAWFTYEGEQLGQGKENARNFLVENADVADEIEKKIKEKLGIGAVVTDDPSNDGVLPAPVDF
The assay can be described thus: Fluorescence Cell-Free Homogeneous Dose Retest to Identify Inhibitors of RecA-Intein Splicing Activity. [Related pubchem assays (depositor defined):AID2097, AID2223, AID489010, AID492950]. The format is functional.

In a further assay the target is T4, Aspartyl aminopeptidase (Plasmodium falciparum 3D7, UniProt Q8I2J3).
T4 sequence (Q8I2J3 whole entry): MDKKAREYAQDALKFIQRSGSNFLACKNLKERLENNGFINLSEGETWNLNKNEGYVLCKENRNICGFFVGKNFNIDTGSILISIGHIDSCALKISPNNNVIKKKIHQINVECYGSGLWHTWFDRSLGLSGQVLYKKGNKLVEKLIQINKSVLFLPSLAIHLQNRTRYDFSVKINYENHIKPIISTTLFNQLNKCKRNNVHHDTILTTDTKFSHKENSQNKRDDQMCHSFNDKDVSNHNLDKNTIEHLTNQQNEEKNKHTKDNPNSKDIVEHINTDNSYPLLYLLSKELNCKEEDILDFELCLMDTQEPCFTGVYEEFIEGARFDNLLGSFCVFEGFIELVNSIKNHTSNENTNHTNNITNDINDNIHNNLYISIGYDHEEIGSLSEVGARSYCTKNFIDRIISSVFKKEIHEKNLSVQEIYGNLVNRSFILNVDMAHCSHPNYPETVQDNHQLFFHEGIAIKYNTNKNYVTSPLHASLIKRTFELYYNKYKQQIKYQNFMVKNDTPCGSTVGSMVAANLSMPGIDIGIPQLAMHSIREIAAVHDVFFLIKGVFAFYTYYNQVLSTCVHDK
The assay can be described thus: Counterscreen for inhibitors of M1 and M17 aminopeptidases: QFRET-based biochemical high throughput dose response assay for inhibitors of the Plasmodium falciparum M18 Aspartyl Aminopeptidase (PFM18AAP). [Related PubChem assays: 1619 (Screening assay (M17LAP inhibitors).), 1445 (Screening assay (M1AAP inhibitors).)].

The test system of assay [3] is Streptococcus sp. 'group A'. Description: growth inhibition of control SK(-) GAS strain, dose response, counter-screen for streptokinase expression inhibitor project, luminescence, kanamycin, BacTiterGlo, confirmation (AID 1900). The format is functional, organism-based. Background: A counterscreen serves to expose hits that act by an unwanted route or on another target.

In another assay the test system is Streptococcus. Description: Group A Streptococcus viability loss, dose response, counter-screen for streptokinase expression inhibitor project, luminescence, BacTiterGlo (AID 1915).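 Further: potency for reduction of bacterial viability or growth.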 The assay is classed as functional, organism-based.
For assay [4], the system named is BJ. The assay can be described thus: cytotoxicity toward BJ-TERT-LT-ST fibroblasts, dose response, cell-based, RAS-independent, luminescence (AID 1935).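 Further: BJ fibroblasts immortalized with TERT plus LT and ST oncogenes.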 The format is functional. The settings on record: Homo sapiens.
Assay [5] in a line: cytotoxicity toward NIH3T3 fibroblasts, dose response, counter-screen, cell-based, ATP luminescence, mouse fibroblasts (AID 2010).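 Further: cells exposed to compound for about 90 hours before reading.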 The format is functional.
Assay [6] is described as follows: inhibitors of firefly luciferase expression or activity, dose response, H4 neuroglioma cells, luminescence (AID 1990). The assay is classed as functional, cell-based.
A short description of assay [7]: Luminescence Cell-Based Dose Response HTS to Identify Inhibitors of 5'UTR Stem-Loop Driven Prion Protein mRNA Translation in H4 Neuroglioblastoma Cells. [Related pubchem assays: 1827 (Project Summary), 1813 (Primary HTS)]. The assay is classed as functional.
The nature of assay [8]: inhibitors of intracellular T. cruzi replication, confirmation, NIH3T3 host cells, beta-gal luminescence (AID 2044).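 Further: intracellular parasites grown in NIH/3T3 mouse fibroblasts as host cells; luminescent beta-galactosidase reporter signal from transgenic T. cruzi replicating inside host cells; inhibitors lower the luminescence signal.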 The assay is classed as functional, cell-based.
The subject of assay [9] is BJ. The assay can be described thus: cytotoxicity toward BJ-TERT fibroblasts, dose response, cell-based, RAS-independent, luminescence (AID 1933). The assay is classed as functional. The settings on record: Homo sapiens.
Assay [10] in a line: Luminescence-based dose response cell-based high throughput screening assay for cytotoxic compounds using the IEC-6 intestinal epithelial cell line. [Related pubchem assays: 1858 (Summary AID.), 1825 (Counterscreen.), 1907 (Confirmation screen.)]. The assay is classed as functional.
In assay [11] the test system is BJ. Description: cells. The format is functional, cell-based. The settings on record: Homo sapiens.
Assay [12] can be described thus: cytotoxicity toward DRD oncogenic fibroblasts, dose response, cell-based, non-viral oncogenic, luminescence (AID 1934). The format is functional. The settings on record: Homo sapiens.
The target in assay [13] is Transitional endoplasmic reticulum ATPase (Homo sapiens, UniProt P55072). The assay can be described thus: Luminescence dose response biochemical high throughput screening assay for inhibitors of the p97 ATPase: synthesized compounds. [Related pubchem assays: 1481, 1517 ].
Assay [14] has as its target Transitional endoplasmic reticulum ATPase (Homo sapiens, UniProt P55072, C522A). Description: Luminescence counterscreen assay for p97 inhibitors: dose response biochemical high throughput screening assay to identify inhibitors of the C522A mutant p97 ATPase: synthesized compounds. [Related pubchem assays: 1481, 1517, 1551 ].

Calls of active or inactive are those of the source. For most assays here, no stated cut-off is given here; in the data, actives have a measured EC50 and inactives only a lower limit. A value given as a limit tells only on which side of the number the result lay.

Transitional endoplasmic reticulum ATPase (Homo sapiens, UniProt P55072, C522A), sequence (P55072 2-806 C522A limits assumed): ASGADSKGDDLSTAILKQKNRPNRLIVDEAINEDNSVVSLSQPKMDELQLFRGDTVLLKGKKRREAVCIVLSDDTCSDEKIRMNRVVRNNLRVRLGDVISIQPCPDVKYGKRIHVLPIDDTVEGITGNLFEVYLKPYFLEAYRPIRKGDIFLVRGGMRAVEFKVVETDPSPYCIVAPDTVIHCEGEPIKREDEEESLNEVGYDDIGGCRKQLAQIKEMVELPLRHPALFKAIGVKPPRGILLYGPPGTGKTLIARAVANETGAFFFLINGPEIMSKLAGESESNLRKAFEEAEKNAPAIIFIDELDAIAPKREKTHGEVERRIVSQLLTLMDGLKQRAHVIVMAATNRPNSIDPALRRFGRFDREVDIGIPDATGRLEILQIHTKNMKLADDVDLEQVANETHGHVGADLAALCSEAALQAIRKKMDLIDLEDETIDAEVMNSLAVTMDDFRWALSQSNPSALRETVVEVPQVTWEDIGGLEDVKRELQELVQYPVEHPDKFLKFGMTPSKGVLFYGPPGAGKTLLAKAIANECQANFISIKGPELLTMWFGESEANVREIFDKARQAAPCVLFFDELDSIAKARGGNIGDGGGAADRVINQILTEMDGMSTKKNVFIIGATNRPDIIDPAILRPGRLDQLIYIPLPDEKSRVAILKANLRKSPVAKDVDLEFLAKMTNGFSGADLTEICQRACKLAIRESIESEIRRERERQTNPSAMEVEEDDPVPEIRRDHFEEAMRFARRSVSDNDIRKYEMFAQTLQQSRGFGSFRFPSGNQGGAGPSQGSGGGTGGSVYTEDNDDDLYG
Procathepsin L, sequence (P07711 whole entry): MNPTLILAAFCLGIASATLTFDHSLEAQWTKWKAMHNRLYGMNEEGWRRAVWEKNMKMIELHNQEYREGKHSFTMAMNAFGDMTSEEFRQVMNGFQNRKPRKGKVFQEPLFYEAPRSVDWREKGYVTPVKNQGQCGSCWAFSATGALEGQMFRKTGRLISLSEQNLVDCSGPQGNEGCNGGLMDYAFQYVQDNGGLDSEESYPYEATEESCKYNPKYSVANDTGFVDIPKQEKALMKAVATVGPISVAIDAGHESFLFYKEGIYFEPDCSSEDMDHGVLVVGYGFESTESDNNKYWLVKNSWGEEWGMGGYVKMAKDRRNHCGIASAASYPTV
Transitional endoplasmic reticulum ATPase (Homo sapiens, UniProt P55072), sequence (P55072 whole entry): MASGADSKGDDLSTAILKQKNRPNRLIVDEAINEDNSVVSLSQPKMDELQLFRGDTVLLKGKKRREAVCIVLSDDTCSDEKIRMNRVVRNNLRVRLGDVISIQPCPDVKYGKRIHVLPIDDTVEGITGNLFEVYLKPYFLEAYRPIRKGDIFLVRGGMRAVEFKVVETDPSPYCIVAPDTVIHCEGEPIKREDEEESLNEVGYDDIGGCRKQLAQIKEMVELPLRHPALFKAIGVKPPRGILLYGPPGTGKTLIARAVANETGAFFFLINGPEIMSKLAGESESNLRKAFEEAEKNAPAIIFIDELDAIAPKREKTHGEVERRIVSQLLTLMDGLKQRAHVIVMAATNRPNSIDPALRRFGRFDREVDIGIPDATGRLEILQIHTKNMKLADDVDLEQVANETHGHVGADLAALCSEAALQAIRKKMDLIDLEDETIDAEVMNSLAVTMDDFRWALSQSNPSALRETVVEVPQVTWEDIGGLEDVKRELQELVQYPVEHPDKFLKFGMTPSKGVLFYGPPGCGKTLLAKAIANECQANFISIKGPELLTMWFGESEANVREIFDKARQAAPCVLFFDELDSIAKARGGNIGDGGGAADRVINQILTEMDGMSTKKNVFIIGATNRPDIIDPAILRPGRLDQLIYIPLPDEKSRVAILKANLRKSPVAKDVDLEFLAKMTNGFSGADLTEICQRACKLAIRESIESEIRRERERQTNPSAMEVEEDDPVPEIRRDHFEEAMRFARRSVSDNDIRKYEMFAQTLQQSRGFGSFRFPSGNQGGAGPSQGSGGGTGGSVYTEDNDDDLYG

`COc1ccc(-c2cc(=O)[nH][nH]2)cc1`: the IC50 – broadly, the point on the concentration scale where inhibition reaches its midpoint – on Procathepsin L is > 59600 nM (not active); on Leucine aminopeptidase, 2970 nM (active); against Aspartyl aminopeptidase, > 73500 nM (not active). In addition, the figures for the half-maximal activity concentration (AC50) in [1] and in [2] were 5540 nM (active) and 882 nM (active), respectively. The EC50 – broadly, the concentration needed to bring the measured effect to its halfway point – at Protein RecA was 444 nM (active).
On to `COc1ccccc1-c1nnc(Nc2nc3c(OC)cccc3s2)o1`, for which the concentration for a half-maximal effect (EC50) in assay [3] is 1670 nM (active); in the assay with Streptococcus, > 150000 nM (inconclusive); with BJ [4], 457 nM (inconclusive); in assay [5], 576 nM (active); in assay [6], 8660 nM (inconclusive); in assay [7] it was 5650 nM (active). The EC50 in [8] was 559 nM (active); in the assay on BJ [9], 904 nM (active); in the assay on BJ [11], 635 nM (active); in assay [12], 28900 nM (inconclusive). The IC50 in assay [10] was 886 nM (active).
For `CCOC(=O)/C(C#N)=C/c1ccc(C#N)cc1`, the IC50 in [13] and in [14] was > 50000 nM (not active) throughout.
